Drawing on patent publication US8178668B2, “2-aminopyridine kinase inhibitors” (OSI Pharmaceuticals, LLC, priority 2008, dated 2012), this text covers IC50 for 31 compounds.

For test [1], the target named is RON (human) (Homo sapiens, UniProt Q04912). In words: RON kinase AlphaScreen assay (Km of ATP). The format is biochemical. The conditions noted are these: ATP at Km; at least duplicate experiments. In outline: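 AlphaScreen with PT66 donor/acceptor beads, read after 1 h, detected phosphorylation of biotinylated poly(Glu,Tyr) by human RON. Enzyme-started reactions ran 30 min at room temperature with ATP at Km. Buffer was HEPES pH 7.4 with MgCl2, glycerol, vanadate and 1% DMSO.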
Sequence of RON (human) (Q04912 25-1400): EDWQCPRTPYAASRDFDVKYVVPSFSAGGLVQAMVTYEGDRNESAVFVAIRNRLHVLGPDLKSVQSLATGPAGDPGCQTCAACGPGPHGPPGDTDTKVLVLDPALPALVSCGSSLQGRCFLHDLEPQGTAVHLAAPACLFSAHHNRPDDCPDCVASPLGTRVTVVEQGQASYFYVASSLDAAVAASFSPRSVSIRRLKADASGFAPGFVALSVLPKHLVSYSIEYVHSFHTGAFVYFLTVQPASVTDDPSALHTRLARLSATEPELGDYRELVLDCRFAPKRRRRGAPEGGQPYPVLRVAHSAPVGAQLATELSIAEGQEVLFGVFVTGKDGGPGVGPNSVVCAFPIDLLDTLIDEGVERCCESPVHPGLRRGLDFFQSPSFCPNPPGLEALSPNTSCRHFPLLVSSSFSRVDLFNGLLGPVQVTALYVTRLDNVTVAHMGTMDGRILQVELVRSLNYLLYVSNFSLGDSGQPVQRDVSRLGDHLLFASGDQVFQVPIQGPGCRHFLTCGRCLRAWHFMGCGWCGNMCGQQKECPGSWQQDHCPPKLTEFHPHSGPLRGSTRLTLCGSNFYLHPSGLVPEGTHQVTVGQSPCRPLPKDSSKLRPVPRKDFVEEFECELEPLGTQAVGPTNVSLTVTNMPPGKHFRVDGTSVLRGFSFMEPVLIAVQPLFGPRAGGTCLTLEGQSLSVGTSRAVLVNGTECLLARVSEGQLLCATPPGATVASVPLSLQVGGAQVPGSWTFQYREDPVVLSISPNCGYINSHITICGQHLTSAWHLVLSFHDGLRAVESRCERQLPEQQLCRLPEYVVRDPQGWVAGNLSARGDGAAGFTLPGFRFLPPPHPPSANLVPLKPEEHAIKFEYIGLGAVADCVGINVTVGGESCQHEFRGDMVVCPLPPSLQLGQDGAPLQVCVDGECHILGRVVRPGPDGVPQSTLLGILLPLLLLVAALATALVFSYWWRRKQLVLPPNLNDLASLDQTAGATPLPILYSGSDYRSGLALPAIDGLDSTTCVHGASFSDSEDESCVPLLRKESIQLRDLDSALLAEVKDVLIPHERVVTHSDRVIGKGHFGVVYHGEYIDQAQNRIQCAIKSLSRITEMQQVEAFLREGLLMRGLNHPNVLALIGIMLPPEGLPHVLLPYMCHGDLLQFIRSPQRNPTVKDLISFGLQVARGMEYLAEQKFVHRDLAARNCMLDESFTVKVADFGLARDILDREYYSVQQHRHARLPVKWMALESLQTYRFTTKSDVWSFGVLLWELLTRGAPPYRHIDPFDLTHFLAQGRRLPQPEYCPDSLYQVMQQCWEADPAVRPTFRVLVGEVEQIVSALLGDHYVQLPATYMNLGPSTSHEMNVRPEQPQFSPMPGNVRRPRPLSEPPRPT

The target in test [2] is MET (human) (Homo sapiens, UniProt P08581). The test is described as follows: MET kinase AlphaScreen assay (Km of ATP). In kind it is biochemical. The conditions noted are these: ATP at Km; at least duplicate experiments. In a few lines: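 AlphaScreen detection with PT66 beads (1 h) follows a 60 min room-temperature MET reaction. Substrate is 200 ng/μL biotinylated poly(Glu,Tyr), with ATP set at an enzyme-optimized concentration. Buffer is HEPES pH 7.4 with MgCl2, MnCl2 and 0.334 mM vanadate, compounds at 1% DMSO.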
Sequence of MET (human) (P08581 25-1390): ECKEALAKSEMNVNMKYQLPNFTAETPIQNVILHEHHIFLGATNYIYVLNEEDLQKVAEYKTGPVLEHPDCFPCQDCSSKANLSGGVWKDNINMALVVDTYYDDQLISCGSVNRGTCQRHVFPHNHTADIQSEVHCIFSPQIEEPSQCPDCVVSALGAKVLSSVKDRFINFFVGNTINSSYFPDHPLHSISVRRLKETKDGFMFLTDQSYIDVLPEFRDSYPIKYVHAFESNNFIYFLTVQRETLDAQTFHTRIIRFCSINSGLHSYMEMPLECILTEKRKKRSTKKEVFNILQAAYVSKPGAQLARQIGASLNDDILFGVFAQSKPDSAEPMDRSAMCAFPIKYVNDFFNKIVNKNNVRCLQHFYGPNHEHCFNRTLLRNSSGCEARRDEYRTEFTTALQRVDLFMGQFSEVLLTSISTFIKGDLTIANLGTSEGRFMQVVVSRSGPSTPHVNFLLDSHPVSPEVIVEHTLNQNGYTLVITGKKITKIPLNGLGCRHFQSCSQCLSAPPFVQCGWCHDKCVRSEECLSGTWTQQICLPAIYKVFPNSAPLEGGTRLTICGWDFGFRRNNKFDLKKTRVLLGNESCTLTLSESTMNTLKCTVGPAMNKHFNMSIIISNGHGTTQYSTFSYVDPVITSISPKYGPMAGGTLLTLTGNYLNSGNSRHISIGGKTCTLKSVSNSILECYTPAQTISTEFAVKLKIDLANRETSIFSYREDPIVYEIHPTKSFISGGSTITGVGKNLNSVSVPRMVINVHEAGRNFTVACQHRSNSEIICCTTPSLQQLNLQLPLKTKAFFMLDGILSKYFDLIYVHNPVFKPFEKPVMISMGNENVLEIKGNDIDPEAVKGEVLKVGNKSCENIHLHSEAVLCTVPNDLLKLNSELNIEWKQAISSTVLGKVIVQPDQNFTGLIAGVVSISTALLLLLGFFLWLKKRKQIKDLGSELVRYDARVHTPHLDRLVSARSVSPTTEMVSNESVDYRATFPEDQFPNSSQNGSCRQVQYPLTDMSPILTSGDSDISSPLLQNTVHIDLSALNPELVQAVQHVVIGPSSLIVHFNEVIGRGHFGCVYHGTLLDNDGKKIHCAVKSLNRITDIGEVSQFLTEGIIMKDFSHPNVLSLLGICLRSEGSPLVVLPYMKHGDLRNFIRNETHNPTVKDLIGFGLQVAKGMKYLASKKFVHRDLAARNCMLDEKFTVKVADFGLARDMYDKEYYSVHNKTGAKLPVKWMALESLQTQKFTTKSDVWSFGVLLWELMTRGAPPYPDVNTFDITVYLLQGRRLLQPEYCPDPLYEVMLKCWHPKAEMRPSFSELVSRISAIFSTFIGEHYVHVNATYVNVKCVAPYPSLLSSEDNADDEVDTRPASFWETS
For orientation: Bead proximity is the source of the signal in Alpha formats.

Structures can show the parent of a compound that is named as a salt.

For `Nc1ncc(-c2cnn(C3CCN(CC(=O)N4CCC(O)CC4)CC3)c2)cc1-c1nc2ccccc2s1` [Example 169, 2-{4-[4-(6-Amino-5-benzothiazol-2-ylpyridin-3-yl)-pyrazol-1-yl]-piperidin-1-yl}-1-(4-hydroxypiperidin-1-yl)ethanone], the IC50 is 100 to 1000 nM in test [1] and not above 100 nM in test [2].

With `Nc1ncc(-c2cnn(C3CCN(CC(=O)N4CCOCC4)CC3)c2)cc1-c1nc2ccccc2s1` [Example 170, 2-{4-[4-(6-Amino-5-benzothiazol-2-ylpyridin-3-yl)-pyrazol-1-yl]-piperidin-1-yl}-1-morpholin-4-ylethanone], the IC50 in test [1] is 100 to 1000 nM; in test [2], not above 100 nM.

Consider `Nc1ncc(-c2cnn(C3CCN(CC(=O)NCCO)CC3)c2)cc1-c1nc2ccccc2s1` [Example 171, 2-{4-[4-(6-Amino-5-benzothiazol-2-ylpyridin-3-yl)-pyrazol-1-yl]-piperidin-1-yl}-N-(2-hydroxyethyl)-acetamide], for which the IC50 in test [1] was 100 to 1000 nM; in test [2], not above 100 nM.

Regarding `COCCNC(=O)CN1CCC(n2cc(-c3cnc(N)c(-c4nc5ccccc5s4)c3)cn2)CC1` [Example 172, 2-{4-[4-(6-Amino-5-benzothiazol-2-ylpyridin-3-yl)-pyrazol-1-yl]-piperidin-1-yl}-N-(2-methoxyethyl)-acetamide], the IC50 in test [1] and in test [2] was 100 to 1000 nM each time.

For the compound `COCCN(CCOC)C(=O)CN1CCC(n2cc(-c3cnc(N)c(-c4nc5ccccc5s4)c3)cn2)CC1` [Example 173, 2-{4-[4-(6-Amino-5-benzothiazol-2-ylpyridin-3-yl)-pyrazol-1-yl]-piperidin-1-yl}-N,N-bis-(2-methoxyethyl)-acetamide], the IC50 in test [1] and in test [2] was 100 to 1000 nM in each case.

Take `Nc1ncc(-c2cnn([C@@H]3CN[C@@H](C(=O)O)C3)c2)cc1-c1nc2ccccc2s1` [Example 174, (2R,4S)-4-[4-(6-Amino-5-benzothiazol-2-ylpyridin-3-yl)-pyrazol-1-yl]-pyrrolidine-2-carboxylic acid]: the IC50 is 1000 to 20000 nM in test [1] and not above 100 nM in test [2].

In the case of `CN(C)C(=O)[C@H]1C[C@H](n2cc(-c3cnc(N)c(-c4nc5ccccc5s4)c3)cn2)CN1` [Example 175, (2R,4S)-4-[4-(6-Amino-5-benzothiazol-2-ylpyridin-3-yl)-pyrazol-1-yl]-pyrrolidine-2-carboxylic acid dimethylamide], the IC50 in test [1] and in test [2] was 100 to 1000 nM in each case.

In the case of `Nc1ncc(-c2cnn([C@@H]3CN[C@@H](C(=O)N4CCCC4)C3)c2)cc1-c1nc2ccccc2s1` [Example 176, {(2R,4S)-4-[4-(6-Amino-5-benzothiazol-2-ylpyridin-3-yl)-pyrazol-1-yl]-pyrrolidin-2-yl}-pyrrolidin-1-ylmethanone], the IC50 in test [1] and in test [2] was 100 to 1000 nM throughout.

Take `Nc1ncc(-c2cnn([C@@H]3CN[C@@H](C(=O)N4CCC(O)C4)C3)c2)cc1-c1nc2ccccc2s1` (stereo partly drawn) [Example 177, {(2R,4S)-4-[4-(6-Amino-5-benzothiazol-2-ylpyridin-3-yl)-pyrazol-1-yl]-pyrrolidin-2-yl}-(3-hydroxypyrrolidin-1-yl)methanone]: the IC50 in test [1] was 100 to 1000 nM; in test [2] it was not above 100 nM.

For the compound `Nc1ncc(-c2cnn([C@@H]3CN[C@@H](C(=O)N4CCCCC4)C3)c2)cc1-c1nc2ccccc2s1` [Example 178, {(2R,4S)-4-[4-(6-Amino-5-benzothiazol-2-ylpyridin-3-yl)-pyrazol-1-yl]-pyrrolidin-2-yl}-piperidin-1-ylmethanone], the IC50 in test [1] and in test [2] was 100 to 1000 nM throughout.

In the case of `Nc1ncc(-c2cnn([C@@H]3CN[C@@H](C(=O)N4CCOCC4)C3)c2)cc1-c1nc2ccccc2s1` [Example 179, {(2R,4S)-4-[4-(6-Amino-5-benzothiazol-2-ylpyridin-3-yl)-pyrazol-1-yl]-pyrrolidin-2-yl}-morpholin-4-ylmethanone], the IC50 is 100 to 1000 nM in test [1] and not above 100 nM in test [2].

Regarding `Nc1ncc(-c2cnn(C3CNC3)c2)cc1-c1nc2ccccc2s1` [Example 181, 5-(1-Azetidin-3-yl-1H-pyrazol-4-yl)-3-benzothiazol-2-ylpyridin-2-ylamine trifluoroacetate], the IC50 is 100 to 1000 nM in test [1] and not above 100 nM in test [2].

Regarding `CN1CCN(C(=O)c2ccc(-c3cnc(N)c(-c4nc5ccccc5s4)c3)cc2)CC1` [Example 182, [4-(6-Amino-5-benzothiazol-2-ylpyridin-3-yl)phenyl]-(4-methylpiperazin-1-yl)methanone], the IC50 in test [1] was in the range of 1000 to 20000 nM; in test [2], 100 to 1000 nM.

Turning to `CN(C)C(=O)c1ccc(-c2cnc(N)c(-c3nc4ccccc4s3)c2)cc1` [Example 183, 4-(6-Amino-5-benzothiazol-2-ylpyridin-3-yl)-N,N-dimethylbenzamide], the IC50 in test [1] and in test [2] was 1000 to 20000 nM throughout.

`CN1CCN(C(=O)c2cccc(-c3cnc(N)c(-c4nc5ccccc5s4)c3)c2)CC1` [Example 184, [3-(6-Amino-5-benzothiazol-2-ylpyridin-3-yl)phenyl]-(4-methylpiperazin-1-yl)methanone]: the IC50 in test [1] and in test [2] was 1000 to 20000 nM each time.

As to `CN(C)CCNC(=O)c1ccc(-c2cnc(N)c(-c3nc4ccccc4s3)c2)cc1` [Example 185, 4-(6-Amino-5-benzothiazol-2-ylpyridin-3-yl)-N-(2-dimethylaminoethyl)benzamide], the values for the half-inhibitory concentration (IC50) in test [1] and in test [2] were 1000 to 20000 nM and 100 to 1000 nM, respectively.

With `CN(C)C(=O)c1cccc(-c2cnc(N)c(-c3nc4ccccc4s3)c2)c1` [Example 186, 3-(6-Amino-5-benzothiazol-2-ylpyridin-3-yl)-N,N-dimethylbenzamide], the half-maximal inhibitory concentration (IC50) in test [1] was more than 20000 nM; in test [2], 1000 to 20000 nM.

Take `CN(C)CCNC(=O)c1cccc(-c2cnc(N)c(-c3nc4ccccc4s3)c2)c1` [Example 187, 3-(6-Amino-5-benzothiazol-2-ylpyridin-3-yl)-N-(2-dimethylaminoethyl)benzamide]: the IC50 in test [1] and in test [2] was 1000 to 20000 nM in each case.

For `CN(C)CCCOc1ccc(-c2cnc(N)c(-c3nc4ccccc4s3)c2)cn1` [Example 188, 5-Benzothiazol-2-yl-6′-(3-dimethylaminopropoxy)-[3,3′]bipyridinyl-6-ylamine], the IC50 in test [1] and in test [2] was 1000 to 20000 nM throughout.

For `Nc1ncc(-c2ccc(C(=O)N3CCOCC3)cc2)cc1-c1nc2ccccc2s1` [Example 189, [4-(6-Amino-5-benzothiazol-2-ylpyridin-3-yl)phenyl]morpholin-4-ylmethanone], the IC50 in test [1] and in test [2] was 1000 to 20000 nM in each case.

Turning to `NC(=O)c1ccc(-c2cnc(N)c(-c3nc4ccccc4s3)c2)cc1` [Example 190, 4-(6-Amino-5-benzothiazol-2-ylpyridin-3-yl)benzamide], the IC50 in test [1] is more than 20000 nM; in test [2], 1000 to 20000 nM.

On to `CCN(CC)C(=O)c1ccc(-c2cnc(N)c(-c3nc4ccccc4s3)c2)cc1` [Example 191, 4-(6-Amino-5-benzothiazol-2-ylpyridin-3-yl)-N,N-diethylbenzamide], for which the IC50 in test [1] and in test [2] was more than 20000 nM each time.

For the compound `Nc1ncc(-c2cccc(C(=O)NCc3ccco3)c2)cc1-c1nc2ccccc2s1` [Example 192, 3-(6-Amino-5-benzothiazol-2-ylpyridin-3-yl)-N-furan-2-ylmethylbenzamide], the IC50 in test [1] and in test [2] was 1000 to 20000 nM throughout.

For the compound `Nc1ncc(-c2ccc(C(=O)NCc3ccco3)cc2)cc1-c1nc2ccccc2s1` [Example 193, 4-(6-Amino-5-benzothiazol-2-ylpyridin-3-yl)-N-furan-2-ylmethylbenzamide], the IC50 in test [1] and in test [2] was 1000 to 20000 nM in each case.

With `CNC(=O)c1cccc(-c2cnc(N)c(-c3nc4ccccc4s3)c2)c1` [Example 194, 3-(6-Amino-5-benzothiazol-2-ylpyridin-3-yl)-N-methylbenzamide], the IC50 in test [1] and in test [2] was more than 20000 nM throughout.

On to `Nc1ncc(-c2ccc(C(=O)N3CCCCC3)cc2)cc1-c1nc2ccccc2s1` [Example 195, [4-(6-Amino-5-benzothiazol-2-ylpyridin-3-yl)phenyl]piperidin-1-ylmethanone], for which the IC50 in test [1] and in test [2] was more than 20000 nM each time.

In the case of `NC(=O)c1cccc(-c2cnc(N)c(-c3nc4ccccc4s3)c2)c1` [Example 196, 3-(6-Amino-5-benzothiazol-2-ylpyridin-3-yl)benzamide], the IC50 in test [1] and in test [2] was 1000 to 20000 nM in each case.

As for `Nc1ncc(-c2cnn(CCN3CCOCC3)c2)cc1-c1nc2ccccc2s1` [Example 197, 3-Benzothiazol-2-yl-5-[1-(2-morpholin-4-ylethyl)-1H-pyrazol-4-yl]pyridin-2-ylamine], the IC50 in test [1] and in test [2] was 1000 to 20000 nM in each case.

As for `Nc1ncc(-c2ccc(C(=O)NC3CC3)cc2)cc1-c1nc2ccccc2s1` [Example 198, 4-(6-Amino-5-benzothiazol-2-ylpyridin-3-yl)-N-cyclopropylbenzamide], the values for the IC50 in test [1] and in test [2] were more than 20000 nM and 1000 to 20000 nM, respectively.

`CNC(=O)c1ccc(-c2cnc(N)c(-c3nc4ccccc4s3)c2)cc1` [Example 199, 4-(6-Amino-5-benzothiazol-2-ylpyridin-3-yl)-N-methylbenzamide]: the IC50 in test [1] and in test [2] was 1000 to 20000 nM throughout.

Take `Nc1ncc(-c2ccc(C(=O)O)cc2)cc1-c1nc2ccccc2s1` [Example 201, 4-(6-Amino-5-benzothiazol-2-ylpyridin-3-yl)-benzoic acid]: the IC50 in test [1] and in test [2] was 1000 to 20000 nM throughout.

For orientation: IC50 means the midpoint of a concentration-inhibition curve. Read a low IC50 as inhibition by little substance.
